Test results taken from patent US20060069132A1, “Azolecarboxamide herbicides” (priority 2004, published 2006).
Like-named read-outs stand apart in the source and are kept apart here.

How the values were obtained:
[1] = system: Surinam grass; assay: Test B pre-/postemergence herbicide test; assay type: in vivo, Urochloa decumbens
Procedure, shortened: (§1)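 Herbicidal effect was judged by eye on a 0–100 scale after plants stood 13 to 15 days in the greenhouse following pre- or postemergence treatment with surfactant-containing formulations.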

[2] = system: rice; assay: Test B flooded paddy test; assay type: in vivo, Oryza sativa; conditions: 1000 g ai/ha, scale 0 to 100 (0 no effect, 100 complete control)
Procedure, shortened: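 Treated at 2-leaf (paddy) or 1–4-leaf, 2–18 cm (postemergence); greenhouse 13–15 d; visual score vs control, 0 none to 100 complete control; dash = not tested.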

[3] = system: barnyardgrass; assay: Test B flooded paddy test; assay type: in vivo, Echinochloa crus-galli; conditions: 1000 g ai/ha, scale 0 to 100 (0 no effect, 100 complete control)
Procedure, shortened: (§2)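 Read-out: visual comparison with controls, scored 0 to 100, where 100 means complete control and 0 no effect. Formulated chemicals were applied postemergence to plants 2–18 cm tall (1- to 4-leaf), or to flooded-paddy plants at the 2-leaf stage, then held 13 to 15 days under glass.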

[4] = system: velvetleaf; assay: Test B pre-/postemergence herbicide test; assay type: in vivo, Abutilon theophrasti
Procedure, shortened: as §1

[5] = system: small flower umbrella sedge; assay: Test B flooded paddy test; assay type: in vivo, Cyperus difformis; conditions: 1000 g ai/ha, scale 0 to 100 (0 no effect, 100 complete control)
Procedure, shortened: as §2

[6] = system: barnyardgrass; assay: Test B pre-/postemergence herbicide test; assay type: in vivo, Echinochloa crus-galli; conditions: for Barnyardgrass plant response rating: postemergence
Procedure, shortened: (§3)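 Pre: seeds sown, then sprayed. Post: 1–4-leaf plants (2–18 cm) sprayed at the same time. Paddy: flooded, treated at 2-leaf stage. Formulation: non-phytotoxic solvent with surfactant. Greenhouse 13–15 days; visual 0–100 score relative to controls.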

[7] = system: morningglory; assay: Test B pre-/postemergence herbicide test; assay type: in vivo, Ipomoea coccinea
Procedure, shortened: as §3

[8] = system: giant foxtail; assay: Test B pre-/postemergence herbicide test; assay type: in vivo, Setaria faberi; conditions: for Foxtail, Giant plant response rating: postemergence
Procedure, shortened: as §1

[9] = system: ducksalad; assay: Test B flooded paddy test; assay type: in vivo, Heteranthera limosa; conditions: 1000 g ai/ha, scale 0 to 100 (0 no effect, 100 complete control)
Procedure, shortened: as §2

[10] = system: wild oat; assay: Test B postemergence herbicide test; assay type: in vivo, Avena fatua; conditions: scale 0 (no effect) to 100 (complete control)
Procedure, shortened: (§4)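 Greenhouse test; postemergence application to plants at 1–4 leaves (2–18 cm); paddy species at 2 leaves; evaluated visually vs controls at 13–15 days; scale 0–100 (100 = complete control).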

[11] = system: blackgrass; assay: Test B postemergence herbicide test; assay type: in vivo, Alopecurus myosuroides; conditions: for Blackgrass plant response rating: postemergence
Procedure, shortened: as §2

[12] = system: lambsquarters; assay: Test B pre-/postemergence herbicide test; assay type: in vivo, Chenopodium album
Procedure, shortened: as §1

[13] = system: pigweed; assay: Test B pre-/postemergence herbicide test; assay type: in vivo, Amaranthus retroflexus
Procedure, shortened: as §1

[14] = system: cocklebur; assay: Test B pre-/postemergence herbicide test; assay type: in vivo, Xanthium strumarium; conditions: for Cocklebur plant response rating: postemergence
Procedure, shortened: as §3

[15] = system: wheat; assay: Test B postemergence herbicide test; assay type: in vivo, Triticum aestivum; parameters: key to Wheat plant response rating: 0 = no effect, 100 = complete control
Procedure, shortened: as §4

[16] = 125 g ai/ha, 0 is no effect, 100 is complete control, preemergence
[17] = 125 g ai/ha, visual rating, scale 0 (no effect) to 100 (complete control), postemergence
[18] = Postemergence, 500 g ai/ha, scale 0 (no effect) to 100 (complete control)
[19] = 125 g ai/ha, visual rating, scale 0 (no effect) to 100 (complete control)
[20] = 500 g ai/ha, scale 0 to 100, 0 is no effect, 100 is complete control
[21] = Postemergence, 500 g ai/ha, visual rating after 13 to 15 days, scale 0 (no effect) to 100 (complete control)

Structure (SMILES): CCc1nn(C(C)(C)CC)nc1C(=O)Nc1cccc(C(=O)N(C)C)c1 [Compound 372]
- Plant response rating (0 to 100 scale), Surinam Grass [1, 16]: 50
- Surinam Grass plant response rating [1, 17]: 10
- Surinam Grass plant response rating [1, 18]: 10
- Rice plant response rating [2]: 90
- Barnyardgrass plant response rating [3]: 90
- Plant response rating (0 to 100 scale), Velvetleaf [4, 16]: 10
- Velvetleaf plant response rating [4, 17]: 10
- Velvetleaf plant response rating [4, 18]: 30
- Sedge, Umbrella plant response rating [5]: 90
- Plant response rating (0 to 100 scale), Barnyardgrass [6, 16]: 80
- Barnyardgrass plant response rating [6, 19]: 10
- Barnyardgrass plant response rating [6, 20]: 60
- Plant response rating (0 to 100 scale), Morningglory [7, 16]: 10
- Morningglory plant response rating [7, 17]: 20
- Morningglory plant response rating [7, 18]: 60
- Plant response rating (0 to 100 scale), Foxtail, Giant [8, 16]: 60
- Foxtail, Giant plant response rating [8, 19]: 30
- Foxtail, Giant plant response rating [8, 20]: 50
- Ducksalad plant response rating [9]: 90
- Oat, Wild plant response rating ([10]; 125 g ai/ha, visual rating, postemergence): 0
- Oat, Wild plant response rating ([10]; Postemergence, 500 g ai/ha): 30
- Blackgrass plant response rating [11, 19]: 10
- Blackgrass plant response rating [11, 20]: 30
- Plant response rating (0 to 100 scale), Lambsquarters [12, 16]: 100
- Lambsquarters plant response rating [12, 17]: 40
- Lambsquarters plant response rating [12, 18]: 90
- Pigweed plant response rating [13, 17]: 40
- Pigweed plant response rating [13, 18]: 80
- Plant response rating (0 to 100 scale), Cocklebur [14, 16]: 10
- Cocklebur plant response rating [14, 19]: 20
- Cocklebur plant response rating [14, 20]: 30
- Wheat plant response rating [15, 17]: 0
- Wheat plant response rating ([15]; 500 g ai/ha, scale 0 to 100, 0 no effect, 100 complete control, preemergence): 90
- Wheat plant response rating [15, 18]: 10

Structure (SMILES): CCn1nc(C(C)(C)C)cc1C(=O)Nc1cc(C(=O)N(C)C)ccc1F [Compound 6, N-[5-[(dimethylamino)carbonyl]-2-fluorophenyl]-3-(1,1-dimethylethyl)-1-ethyl-1H-pyrazole-5-carboxamide]
- pest or weed control at 125 g/ha ([1]; Urochloa decumbens, post-emergence, Postemergence, 125 g ai/ha, scale 0 (no effect) to 100 (complete control), read-out: Surinam Grass plant response rating): 10%
- pest or weed control at 500 g/ha ([1]; Urochloa decumbens, post-emergence, Postemergence, 500 g ai/ha, visual rating after 13 to 15 days, scale 0 (no effect) to 100 (complete control), read-out: Plant response rating, Surinam Grass): 60%
- pest or weed control at 500 g/ha ([1]; Urochloa decumbens, pre-emergence, Preemergence, 500 g ai/ha, scale 0 to 100, read-out: Surinam Grass plant response rating): 100%
- plant injury at 1000 g/ha ([2]; Oryza sativa, 336 h, visual rating, 13 to 15 days, read-out: Rice plant response rating): 80%
- pest or weed control at 1000 g/ha ([3]; Echinochloa crus-galli, 336 h, visual rating, 13 to 15 days, read-out: Barnyardgrass plant response rating): 90%
- pest or weed control at 125 g/ha ([4]; Abutilon theophrasti, post-emergence, 336 h, Postemergence, 125 g ai/ha, scale 0 (no effect) to 100 (complete control), read-out: Velvetleaf plant response rating): 0%
- pest or weed control at 500 g/ha ([4]; Abutilon theophrasti, post-emergence, 336 h, Postemergence, 500 g ai/ha, visual rating after 13 to 15 days, scale 0 (no effect) to 100 (complete control), read-out: Plant response rating, Velvetleaf): 60%
- pest or weed control at 500 g/ha ([4]; Abutilon theophrasti, pre-emergence, 336 h, Preemergence, 500 g ai/ha, scale 0 to 100, read-out: Velvetleaf plant response rating): 100%
- pest or weed control at 1000 g/ha ([5]; Cyperus difformis, 336 h, visual rating, 13 to 15 days, read-out: Sedge, Umbrella plant response rating): 90%
- pest or weed control at 125 g/ha ([6]; Echinochloa crus-galli, post-emergence, Postemergence, 125 g ai/ha, scale 0 (no effect) to 100 (complete control), read-out: Barnyardgrass plant response rating): 0%
- pest or weed control at 500 g/ha ([6]; Echinochloa crus-galli, post-emergence, Postemergence, 500 g ai/ha, visual rating after 13 to 15 days, scale 0 (no effect) to 100 (complete control), read-out: Plant response rating, Barnyardgrass): 80%
- pest or weed control at 500 g/ha ([6]; Echinochloa crus-galli, pre-emergence, Preemergence, 500 g ai/ha, scale 0 to 100, read-out: Barnyardgrass plant response rating): 100%
- pest or weed control at 125 g/ha ([7]; Ipomoea, post-emergence, 336 h, Postemergence, 125 g ai/ha, scale 0 (no effect) to 100 (complete control), read-out: Morningglory plant response rating): 0%
- pest or weed control at 500 g/ha ([7]; Ipomoea, post-emergence, 336 h, Postemergence, 500 g ai/ha, visual rating after 13 to 15 days, scale 0 (no effect) to 100 (complete control), read-out: Plant response rating, Morningglory): 0%
- pest or weed control at 125 g/ha ([8]; Setaria faberi, post-emergence, 336 h, Postemergence, 125 g ai/ha, scale 0 (no effect) to 100 (complete control), read-out: Foxtail, Giant plant response rating): 10%
- pest or weed control at 500 g/ha ([8]; Setaria faberi, post-emergence, 336 h, Postemergence, 500 g ai/ha, visual rating after 13 to 15 days, scale 0 (no effect) to 100 (complete control), read-out: Plant response rating, Foxtail, Giant): 20%
- pest or weed control at 500 g/ha ([8]; Setaria faberi, pre-emergence, 336 h, Preemergence, 500 g ai/ha, scale 0 to 100, read-out: Foxtail, Giant plant response rating): 100%
- pest or weed control at 1000 g/ha ([9]; Heteranthera limosa, 336 h, visual rating, 13 to 15 days, read-out: Ducksalad plant response rating): 90%
- pest or weed control at 125 g/ha ([10]; Avena fatua, post-emergence, 336 h, Postemergence, 125 g ai/ha, read-out: Oat, Wild plant response rating): 10%
- Plant response rating, Oat, Wild ([10]; Postemergence, 500 g ai/ha, visual rating after 13 to 15 days): 70
- pest or weed control at 125 g/ha ([11]; Alopecurus myosuroides, post-emergence, 336 h, Postemergence, 125 g ai/ha, scale 0 (no effect) to 100 (complete control), read-out: Blackgrass plant response rating): 20%
- Plant response rating, Blackgrass [11, 21]: 90
- pest or weed control at 125 g/ha ([12]; Chenopodium album, post-emergence, 336 h, Postemergence, 125 g ai/ha, scale 0 (no effect) to 100 (complete control), read-out: Lambsquarters plant response rating): 30%
- pest or weed control at 500 g/ha ([12]; Chenopodium album, post-emergence, 336 h, Postemergence, 500 g ai/ha, visual rating after 13 to 15 days, scale 0 (no effect) to 100 (complete control), read-out: Plant response rating, Lambsquarters): 100%
- pest or weed control at 500 g/ha ([12]; Chenopodium album, pre-emergence, 336 h, Preemergence, 500 g ai/ha, scale 0 to 100, read-out: Lambsquarters plant response rating): 100%
- pest or weed control at 125 g/ha ([13]; Amaranthus retroflexus, post-emergence, 336 h, Postemergence, 125 g ai/ha, scale 0 (no effect) to 100 (complete control), read-out: Pigweed plant response rating): 20%
- pest or weed control at 500 g/ha ([13]; Amaranthus retroflexus, post-emergence, 336 h, Postemergence, 500 g ai/ha, visual rating after 13 to 15 days, scale 0 (no effect) to 100 (complete control), read-out: Plant response rating, Pigweed): 70%
- pest or weed control at 500 g/ha ([13]; Amaranthus retroflexus, pre-emergence, 336 h, Preemergence, 500 g ai/ha, scale 0 to 100, read-out: Pigweed plant response rating): 100%
- pest or weed control at 125 g/ha ([14]; Xanthium strumarium, post-emergence, Postemergence, 125 g ai/ha, scale 0 (no effect) to 100 (complete control), read-out: Cocklebur plant response rating): 0%
- pest or weed control at 500 g/ha ([14]; Xanthium strumarium, post-emergence, Postemergence, 500 g ai/ha, visual rating after 13 to 15 days, scale 0 (no effect) to 100 (complete control), read-out: Plant response rating, Cocklebur): 80%
- pest or weed control at 500 g/ha ([14]; Xanthium strumarium, pre-emergence, Preemergence, 500 g ai/ha, scale 0 to 100, read-out: Cocklebur plant response rating): 100%
- Plant response rating, Wheat [15, 21]: 40
- plant injury at 125 g/ha ([15]; Triticum aestivum, post-emergence, 336 h, Postemergence, 125 g ai/ha, scale 0 (no effect) to 100 (complete control), read-out: Wheat plant response rating): 0%
